# Source: publication PMC5659129, “Determinants of the Inhibition of DprE1 and CYP2C9 by Antitubercular Thiophenes” (Angewandte Chemie (International Ed. in English), 2017)
# Read-outs that look alike come from different tables or passages of the source.
# Tests used:
# CYP2C9 [1] = molecular target: T1, CYP2C9 (Homo sapiens, UniProt P11712); conditions: for IC50 ratio (CYP2C9 over DprE1): selectivity
# CYP2C9 [2] = molecular target: T1, CYP2C9; experiment: in vitro; conditions: microsomes, pH 7.4
# Mtb WT = experiment: microbe, parasite or virus in culture; type: cell-based, Mycobacterium tuberculosis; conditions: for MIC: Mycobacterium tuberculosis, 168 h
# Mtb Erdman [3] = type: in vivo, BALB/c mouse; conditions: 3 weeks, acute phase
# Mtb Erdman [4] = type: in vivo, BALB/c mouse; conditions: 200 mg kg−1, oral, 4 weeks, chronic phase
# CYP1A2 = CYP1A2 (Homo sapiens, UniProt P05177); conditions: microsomes
# CYP3A4 = CYP3A4 (Homo sapiens, UniProt P08684); conditions: microsomes
# CYP2D6 = CYP2D6 (Homo sapiens, UniProt P10635); conditions: microsomes
# CYP2C19 = CYP2C19 (Homo sapiens, UniProt P33261); conditions: microsomes
# hERG potassium channel = hERG potassium channel (Homo sapiens, UniProt Q12809); experiment: cell-based
# [5] = Mini-Ames mutagenicity test
# HepG2 cell line = experiment: In vitro cytotoxicity assay, HepG2; conditions: up to a concentration of 100 μM
# Vero cell line = experiment: In vitro cytotoxicity assay (MTT), Vero; conditions: up to a concentration of 100 μM
# Method: In vitro cytotoxicity assay. Vero epithelial cells (from African green monkey; ATCC
# CCL-81) were cultured in Dulbecco’s modified Eagle’s medium (DMEM) supplemented
# with 10% fetal bovine serum (FBS) and maintained in a humidified incubator (37°C in
# 5% CO2). Cells were dislodged with a cell scraper, collected by centrifugation,
# resuspended in fresh medium at 10^6 cells/ml, dispensed into 96-well microtiter plates
# (100 ml/well), and incubated for 18 h at 37°C. Two-fold serial dilutions of test
# compounds in DMEM with FBS were subsequently added, and cells were incubated for
# another 72 h. In triplicate studies, the cytopathic effects of compounds were evaluated
# colorimetrically by using the 3-(4, 5- dimethyl-2-thiazolyl)-2, 5-diphenyl-2H-tetrazolium
# bromide (MTT) cell proliferation assay (ATCC).
# M. smegmatis DprE1 WT = M. smegmatis DprE1 WT (Mycolicibacterium smegmatis, UniProt A0R607); experiment: biochemical
# CYP2C9 [6] = molecular target: T1, CYP2C9; experiment: biochemical
# [7] = MABA, 7 days, 90% reduction in fluorescence
# T1 sequence (P11712 whole entry): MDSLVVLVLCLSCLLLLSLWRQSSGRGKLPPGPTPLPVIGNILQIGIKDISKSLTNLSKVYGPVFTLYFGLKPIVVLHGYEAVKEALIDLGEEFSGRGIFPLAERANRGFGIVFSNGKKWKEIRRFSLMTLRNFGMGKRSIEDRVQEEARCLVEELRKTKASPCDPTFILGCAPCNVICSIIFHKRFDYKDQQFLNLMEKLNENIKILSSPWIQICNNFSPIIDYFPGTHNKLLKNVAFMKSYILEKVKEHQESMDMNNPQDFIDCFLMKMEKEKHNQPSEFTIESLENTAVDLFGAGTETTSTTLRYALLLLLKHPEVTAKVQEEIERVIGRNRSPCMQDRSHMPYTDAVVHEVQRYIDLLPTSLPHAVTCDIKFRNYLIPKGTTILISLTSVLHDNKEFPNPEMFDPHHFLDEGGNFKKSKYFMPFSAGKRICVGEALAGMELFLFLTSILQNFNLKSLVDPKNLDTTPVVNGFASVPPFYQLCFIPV
# M. smegmatis DprE1 WT, sequence (A0R607 whole entry): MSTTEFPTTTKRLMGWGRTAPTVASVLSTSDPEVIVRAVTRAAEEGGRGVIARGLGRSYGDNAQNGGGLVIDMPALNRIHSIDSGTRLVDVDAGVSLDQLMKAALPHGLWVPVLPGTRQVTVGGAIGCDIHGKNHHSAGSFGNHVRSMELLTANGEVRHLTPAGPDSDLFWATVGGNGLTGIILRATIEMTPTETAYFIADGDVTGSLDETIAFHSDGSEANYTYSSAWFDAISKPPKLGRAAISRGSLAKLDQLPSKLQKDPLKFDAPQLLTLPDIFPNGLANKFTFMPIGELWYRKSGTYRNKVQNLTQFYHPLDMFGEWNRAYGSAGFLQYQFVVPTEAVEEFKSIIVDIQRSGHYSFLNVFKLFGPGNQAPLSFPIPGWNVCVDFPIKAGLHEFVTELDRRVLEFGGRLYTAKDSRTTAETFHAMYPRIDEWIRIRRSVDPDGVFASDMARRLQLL
# CYP2D6, sequence (P10635 whole entry): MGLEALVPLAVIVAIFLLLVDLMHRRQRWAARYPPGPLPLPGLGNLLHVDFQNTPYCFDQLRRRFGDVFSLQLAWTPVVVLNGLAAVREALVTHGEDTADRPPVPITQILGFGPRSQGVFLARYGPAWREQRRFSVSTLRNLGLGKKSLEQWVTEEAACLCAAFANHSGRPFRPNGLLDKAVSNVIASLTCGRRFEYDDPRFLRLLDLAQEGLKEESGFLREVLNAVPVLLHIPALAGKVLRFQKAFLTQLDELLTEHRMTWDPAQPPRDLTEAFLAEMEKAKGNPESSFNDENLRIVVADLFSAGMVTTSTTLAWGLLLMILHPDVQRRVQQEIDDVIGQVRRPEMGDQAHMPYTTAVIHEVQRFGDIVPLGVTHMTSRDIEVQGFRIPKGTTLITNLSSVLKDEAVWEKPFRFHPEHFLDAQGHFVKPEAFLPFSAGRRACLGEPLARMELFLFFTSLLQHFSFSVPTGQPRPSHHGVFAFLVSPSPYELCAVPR
# CYP1A2, sequence (P05177 whole entry): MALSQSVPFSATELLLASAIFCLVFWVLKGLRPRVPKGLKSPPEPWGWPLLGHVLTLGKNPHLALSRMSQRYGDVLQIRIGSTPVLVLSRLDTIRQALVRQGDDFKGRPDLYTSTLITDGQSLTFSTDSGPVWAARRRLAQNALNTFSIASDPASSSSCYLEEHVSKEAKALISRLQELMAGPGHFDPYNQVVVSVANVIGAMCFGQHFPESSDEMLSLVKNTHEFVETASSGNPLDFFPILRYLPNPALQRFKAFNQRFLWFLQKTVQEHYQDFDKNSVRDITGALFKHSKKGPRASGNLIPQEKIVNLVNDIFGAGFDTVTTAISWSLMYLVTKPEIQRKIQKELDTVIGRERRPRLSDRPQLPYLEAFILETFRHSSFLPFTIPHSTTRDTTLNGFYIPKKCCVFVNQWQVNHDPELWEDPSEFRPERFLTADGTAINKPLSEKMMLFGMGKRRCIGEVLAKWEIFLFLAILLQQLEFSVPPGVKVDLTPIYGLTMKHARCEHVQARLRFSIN
# CYP2C19, sequence (P33261 whole entry): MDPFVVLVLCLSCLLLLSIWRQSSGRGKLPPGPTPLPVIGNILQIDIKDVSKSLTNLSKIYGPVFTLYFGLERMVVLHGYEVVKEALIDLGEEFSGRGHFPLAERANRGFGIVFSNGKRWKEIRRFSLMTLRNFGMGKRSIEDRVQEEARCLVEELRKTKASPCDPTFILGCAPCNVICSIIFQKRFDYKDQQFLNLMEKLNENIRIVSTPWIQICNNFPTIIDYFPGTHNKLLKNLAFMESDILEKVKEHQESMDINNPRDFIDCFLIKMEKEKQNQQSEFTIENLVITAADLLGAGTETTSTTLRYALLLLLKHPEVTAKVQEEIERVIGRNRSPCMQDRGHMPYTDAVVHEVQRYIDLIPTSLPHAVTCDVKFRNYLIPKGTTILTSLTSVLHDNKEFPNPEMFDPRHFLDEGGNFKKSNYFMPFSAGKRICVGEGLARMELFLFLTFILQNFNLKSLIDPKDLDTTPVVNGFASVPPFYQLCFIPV
# hERG potassium channel, sequence (Q12809 whole entry): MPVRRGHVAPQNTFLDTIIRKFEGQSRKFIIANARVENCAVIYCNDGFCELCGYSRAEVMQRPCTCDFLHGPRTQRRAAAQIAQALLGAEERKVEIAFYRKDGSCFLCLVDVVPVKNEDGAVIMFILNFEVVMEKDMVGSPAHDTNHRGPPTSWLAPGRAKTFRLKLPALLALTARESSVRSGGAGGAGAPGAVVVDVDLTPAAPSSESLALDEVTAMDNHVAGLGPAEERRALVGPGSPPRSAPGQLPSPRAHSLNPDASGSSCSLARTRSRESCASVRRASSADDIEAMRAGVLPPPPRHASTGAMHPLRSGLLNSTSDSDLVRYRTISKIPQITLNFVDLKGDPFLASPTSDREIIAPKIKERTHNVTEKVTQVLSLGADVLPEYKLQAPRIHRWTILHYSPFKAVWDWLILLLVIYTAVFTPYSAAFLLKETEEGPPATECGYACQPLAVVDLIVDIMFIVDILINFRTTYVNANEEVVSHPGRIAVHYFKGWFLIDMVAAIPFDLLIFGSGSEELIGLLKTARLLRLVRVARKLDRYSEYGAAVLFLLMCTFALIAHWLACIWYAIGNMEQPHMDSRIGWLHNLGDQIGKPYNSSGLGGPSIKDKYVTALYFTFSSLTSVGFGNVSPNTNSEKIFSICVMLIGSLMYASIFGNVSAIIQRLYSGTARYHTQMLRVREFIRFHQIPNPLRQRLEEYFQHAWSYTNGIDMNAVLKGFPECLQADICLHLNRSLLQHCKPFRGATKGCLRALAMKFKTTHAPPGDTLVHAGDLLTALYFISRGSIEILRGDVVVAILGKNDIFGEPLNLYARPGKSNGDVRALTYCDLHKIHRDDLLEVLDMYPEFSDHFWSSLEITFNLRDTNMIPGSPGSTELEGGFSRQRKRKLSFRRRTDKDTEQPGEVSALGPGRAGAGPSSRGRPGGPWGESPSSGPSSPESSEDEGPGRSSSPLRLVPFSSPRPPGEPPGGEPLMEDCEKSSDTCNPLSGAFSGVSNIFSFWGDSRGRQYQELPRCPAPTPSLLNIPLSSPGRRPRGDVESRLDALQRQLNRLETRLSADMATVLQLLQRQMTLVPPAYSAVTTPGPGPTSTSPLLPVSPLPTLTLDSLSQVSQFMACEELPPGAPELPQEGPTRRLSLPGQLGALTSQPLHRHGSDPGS
# CYP3A4, sequence (P08684 whole entry): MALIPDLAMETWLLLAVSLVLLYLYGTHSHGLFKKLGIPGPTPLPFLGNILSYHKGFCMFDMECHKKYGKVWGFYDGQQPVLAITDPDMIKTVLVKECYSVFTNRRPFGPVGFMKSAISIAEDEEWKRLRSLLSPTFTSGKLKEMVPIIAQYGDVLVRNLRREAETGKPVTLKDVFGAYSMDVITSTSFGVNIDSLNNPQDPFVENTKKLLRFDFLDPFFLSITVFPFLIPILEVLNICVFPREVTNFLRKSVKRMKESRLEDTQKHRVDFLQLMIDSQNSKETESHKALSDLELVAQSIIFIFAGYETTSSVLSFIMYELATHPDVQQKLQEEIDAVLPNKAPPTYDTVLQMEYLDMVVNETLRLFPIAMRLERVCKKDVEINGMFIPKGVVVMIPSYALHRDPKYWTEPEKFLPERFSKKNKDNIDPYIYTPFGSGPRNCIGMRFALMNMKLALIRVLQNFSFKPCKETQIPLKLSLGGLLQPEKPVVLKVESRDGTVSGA
smiles,measurement,setting,value
CCOC(=O)NC(=O)c1ccsc1NC(=O)c1ccn2cnnc2c1 [TCA582],IC50 ratio (CYP2C9 over DprE1),CYP2C9 [1],33
same,IC50,CYP2C9 [2],1830 nM
CCOC(=O)NC(=O)c1cc(F)sc1NC(=O)c1nc2ccccc2s1 [TCA481],more potent than TCA1 based on MIC,Mtb WT; MIC relative to TCA1,5 fold
same,MIC,Mtb WT; [7],0.046 ± 0.0025 µM
CCOC(=O)NC(=O)c1ccsc1NC(=O)c1nc2ccccc2s1 [TCA1],MIC,Mtb WT; [7],0.23 ± 0.012 µM
CCOC(=O)NC(=O)c1ccsc1NC(=O)c1nc2cnccc2s1 [TCA007],MIC,Mtb WT; [7],0.089 ± 0.0066 µM
same,reduction of bacterial load in lung,"Mtb Erdman [3]; 50 mg kg−1, oral",1.7 log10 CFU
same,reduction of bacterial load in lung,"Mtb Erdman [3]; 100 mg kg−1, oral",2.3 log10 CFU
same,reduction of CFU in mouse lungs,Mtb Erdman [4],> 1.7 log10 CFU
same,inhibitory effect for CYP2C9,CYP2C9 [1]; microsomes,strong inhibitory effect
same,inhibition of CYP1A2,CYP1A2,no inhibition
same,inhibition of CYP3A4,CYP3A4,no inhibition
same,inhibition of CYP2D6,CYP2D6,no inhibition
same,inhibition of CYP2C19,CYP2C19,no inhibition
same,IC50,hERG potassium channel,> 30000 nM
same,genetic toxicity,[5],no genetic toxicity
same,cytotoxicity against HepG2,HepG2 cell line,not cytotoxic
same,cytotoxicity against Vero,Vero cell line,not cytotoxic
Cc1ccnc(NC(=O)c2ccsc2NC(=O)c2nc3cnccc3s2)n1 [TCA787],IC50,"M. smegmatis DprE1 WT; M. smegmatis DprE1, Table 1, read-out: IC50 DprE1 WT",96 ± 38 nM
same,MIC,Mtb WT; [7],0.44 ± 0.12 µM
O=C(Nc1sccc1C(=O)Nc1ncccn1)c1nc2cnccc2s1 [TCA020],MIC WT,Mtb WT; [7],2.5 ± 0.48 µM
same,MIC,Mtb WT; [7],2.5 µM
Cc1ccnc(NC(=O)c2ccsc2NC(=O)c2ccn3cnnc3c2)n1 [TCA711],IC50,"M. smegmatis DprE1 WT; Figure 4D, read-out: DprE1 IC50",30 nM
same,IC50 ratio (CYP2C9 over DprE1),CYP2C9 [1],1515
same,IC50,CYP2C9 [6],> 50000 nM
